Tests used:
[1] = test system: skin flakiness (stratum corneocytes on the back of the hand); test: Reduction of skin flakiness (D-Squame discs, image analysis) after twice daily topical application to the hand; assay type: in vivo, human; conditions: used at 2%
Description: In tests conducted to compare the efficacy of various agents of this type, mannose-6-phosphate caused a reduction in skin flakiness that exceeded the reduction achieved by N-acetyl glucosamine, lactobionic acid, and various mixtures of alpha hydroxy acids, all used at the same or higher levels than the mannose-6-phosphate. In a representative test, mannose-6-phosphate used at 1% reduced skin flakiness, a common measure of exfoliation efficacy, at a level of 24% after two weeks of treatment and 36% at four weeks. […] Thus, mannose-6-phosphate is particularly and unexpectedly effective for desquamation.
Thirty female subjects between the ages of 21 and 65 are selected to test the efficacy of mannose-6-phosphate in reducing skin flakiness, an indicator of exfoliation efficacy. The subjects are instructed not to use moisturizers or any other products on their hands, and their baseline measurements are taken. […] At the end of two and four weeks the subjects return for testing without applying the product for at least 12 hours and they are re-evaluated under the same conditions. […]
To evaluate the efficacy of the treatment products, four D-Squame discs are firmly and evenly pressed on the back of each hand with a hand held uniform pressure device and removed by gently pulling away from the skin. […] Desquamation is evaluated from the D-Squame discs via an OPTIMA image analyzer. […]

[2] = test system: Normal Human Dermal Fibroblasts(NHDF); test: Glycosaminoglycan synthesis by 3H-glucosamine incorporation in fibroblast cultures; assay type: cell-based; conditions: 48 hours
Description: Both mannose and mannose-6-phosphate are tested at various levels from 0.01 mg/ml to 1 mg/ml for their ability to increase the amount of glycosaminoglycans in Normal Human Dermal Fibroblasts(NHDF), using TGF- at 5 and 10 ng/ml as a positive control. NHDF cells are seeded and grown to confluence in a 24 well plate prior to being treated with the test extracts(n=3). At the same time as the treatment, the cultures are labeled with […] of ^3H-glucosamine. The cultures are incubated for 48 hours and extensively washed to remove unbound ^3H-glucosamine prior to being lysed and counted on a scintillation counter. The resulting counts represent newly synthesized glycosaminoglycans. Since glucosamine is required for glycosaminoglycan synthesis, the radioactive glucosamine added to the culture will be incorporated into any glycosaminoglycans synthesized after the addition of the treatment samples. Relative protein levels are determined by comparing the absorbance at 280 nm, of the cell lysates, to the absorbances of a bovine serum albumin curve. […] TGF-, the positive control, is found to increase levels by 28% at 10 ng/ml.

Row | SMILES | reduction in skin flakiness ([1]; after two weeks of treatment) | reduction in skin flakiness ([1]; at four weeks) | increase of glycosaminoglycan levels (normalized to protein levels) ([2]; 0.1 mg/ml) | effect on glycosaminoglycan levels ([2]; levels lower and higher than 0.1 mg/ml (tested 0.01 mg/ml to 1 mg/ml))
1 | O=C(O)[C@H](O)[C@@H](O)[C@H](O[C@@H]1O[C@H](CO)[C@H](O)[C@H](O)[C@H]1O)[C@H](O)CO [lactobionic acid] | 16% | 25% |  | 
2 | O=C[C@@H](O)[C@@H](O)[C@H](O)[C@H](O)COP(=O)(O)O [mannose-6-phosphate] |  |  | 20% | did not have any significant effect
